Results: ChEMBL document CHEMBL1201862, “PubChem BioAssay data set” (2004)
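All cell lines were grown in 96-well plates and treated with compound for 48 hours. GI50 = concentration required for 50% inhibition of growth.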 Active and inactive are the calls of the source. No stated cut-off is given here; in the data, active = GI50 up to about 1.1 µM and inactive = higher.

Columns and labels:
Test in all cases: DTP human tumour cell line panel, 48 h
COLO 205 = tested on: COLO 205
K562 = tested on: K562
SNB-75 = tested on: SNB-75
TK-10 = tested on: TK-10
SW-620 = tested on: SW-620
CCRF-CEM = tested on: CCRF-CEM
HOP-62 = tested on: HOP-62
ACHN = tested on: ACHN
RPMI-8226 = tested on: RPMI-8226
HCT-15 = tested on: HCT-15
SR = tested on: SR
NCI/ADR-RES = tested on: NCI/ADR-RES
Malme-3M = tested on: Malme-3M
SK-OV-3 = tested on: SK-OV-3
SK-MEL-5 = tested on: SK-MEL-5
OVCAR-3 = tested on: OVCAR-3
MCF7 = tested on: MCF7
OVCAR-8 = tested on: OVCAR-8
CAKI-1 = tested on: CAKI-1
786-0 = tested on: 786-0

`CCCCCCCCCCCCCCCC(=O)N(CCCCCCCCCCC(=O)O)CC(O)C(O)C(OC1OC(CO)C(O)C(O)C1O)C(O)CO` (stereo not given) was tested. Which GI50 (COLO 205) did it give?
Its GI50 is 18.4 µM (inactive).

What about the GI50 (K562) of the same molecule?
Its GI50 is 22.5 µM (inactive).

What about the GI50 (SNB-75) of the same molecule?
The GI50 was 38.9 µM (inactive).

What about the GI50 (TK-10) of the same molecule?
The GI50 was > 100 µM (inactive).

And the GI50 (SW-620)?
Its GI50 is 22.1 µM (inactive).

What about the GI50 (CCRF-CEM) of the same molecule?
Its GI50 is 26.5 µM (inactive).

What about the GI50 (HOP-62) of the same molecule?
Its GI50 is 23.5 µM (inactive).

And the GI50 (ACHN)?
Its GI50 is > 100 µM (inactive).

And the GI50 (RPMI-8226)?
The GI50 was 29.2 µM (inactive).

And the GI50 (HCT-15)?
Its GI50 is 41.2 µM.

What about the GI50 (SR) of the same molecule?
The GI50 was 29.1 µM (inactive).

And the GI50 (NCI/ADR-RES)?
Its GI50 is 25.7 µM (inactive).

What about the GI50 (Malme-3M) of the same molecule?
Its GI50 is 19.5 µM (inactive).

And the GI50 (SK-OV-3)?
Its GI50 is 54.7 µM (inactive).

What about the GI50 (SK-MEL-5) of the same molecule?
The GI50 was 33.5 µM (inactive).

What about the GI50 (OVCAR-3) of the same molecule?
The GI50 was > 100 µM (inactive).

And the GI50 (MCF7)?
The GI50 was 53.6 µM (inactive).

And the GI50 (OVCAR-8)?
Its GI50 is 27.1 µM (inactive).

What about the GI50 (CAKI-1) of the same molecule?
Its GI50 is 64 µM (inactive).

What about the GI50 (786-0) of the same molecule?
The GI50 was 74.5 µM (inactive).

`CC(=O)Oc1ccc2c(c1)CC[C@@H]1C2[C@@H](O[N+](=O)[O-])C[C@@]2(C)C1CC[C@@H]2O` (stereo not given in full) was tested. Which GI50 (COLO 205) did it give?
Its GI50 is 50.8 µM (inactive).

And the GI50 (K562)?
The GI50 was 11.9 µM (inactive).

And the GI50 (SNB-75)?
The GI50 was 45.7 µM (inactive).

What about the GI50 (TK-10) of the same molecule?
The GI50 was 49.8 µM (inactive).

And the GI50 (SW-620)?
The GI50 was 35.5 µM (inactive).

What about the GI50 (CCRF-CEM) of the same molecule?
Its GI50 is 22.1 µM (inactive).

And the GI50 (HOP-62)?
The GI50 was 17.1 µM (inactive).

What about the GI50 (ACHN) of the same molecule?
Its GI50 is 61.1 µM (inactive).

What about the GI50 (RPMI-8226) of the same molecule?
The GI50 was 21 µM (inactive).

What about the GI50 (HCT-15) of the same molecule?
Its GI50 is 28.9 µM.

What about the GI50 (SR) of the same molecule?
The GI50 was 16.4 µM (inactive).

And the GI50 (NCI/ADR-RES)?
The GI50 was 26.9 µM (inactive).

And the GI50 (Malme-3M)?
Its GI50 is 32.1 µM (inactive).

And the GI50 (SK-OV-3)?
Its GI50 is 62.5 µM (inactive).

What about the GI50 (SK-MEL-5) of the same molecule?
The GI50 was 24.7 µM (inactive).

And the GI50 (OVCAR-3)?
The GI50 was 35.1 µM (inactive).

And the GI50 (MCF7)?
The GI50 was 41 µM (inactive).

What about the GI50 (OVCAR-8) of the same molecule?
The GI50 was 31.3 µM (inactive).

And the GI50 (CAKI-1)?
Its GI50 is 78 µM (inactive).

What about the GI50 (786-0) of the same molecule?
Its GI50 is 33.8 µM (inactive).

What does the source list for `Cc1cc(NS(=O)(=O)c2ccc(Nc3c4ccccc4nc4c(C(=O)NCCO)cccc34)cc2)no1`?
GI50 (COLO 205): 32.9 µM (inactive); GI50 (K562): 26.3 µM (inactive); GI50 (SNB-75): 7.19 µM (inactive); GI50 (TK-10): 35.6 µM (inactive); GI50 (SW-620): 22.6 µM (inactive); GI50 (CCRF-CEM): 15.2 µM (inactive); GI50 (HOP-62): 32.9 µM (inactive); GI50 (ACHN): 30.2 µM (inactive); GI50 (RPMI-8226): 19.4 µM (inactive); GI50 (HCT-15): 24.9 µM; GI50 (SR): 22.5 µM (inactive); GI50 (NCI/ADR-RES): > 100 µM (inactive); GI50 (Malme-3M): 28.1 µM (inactive); GI50 (SK-OV-3): 35.6 µM (inactive); GI50 (SK-MEL-5): 23.4 µM (inactive); GI50 (OVCAR-3): 21.9 µM (inactive); GI50 (MCF7): 14.9 µM (inactive); GI50 (OVCAR-8): 34.5 µM (inactive); GI50 (CAKI-1): 26.1 µM (inactive); GI50 (786-0): 30.8 µM (inactive)

How did the GI50 (COLO 205) turn out when `Cn1c(=O)c2c(nc(C(=N)SCC(=O)O)n2C)n(C)c1=O` was run?
Its GI50 is 31.3 µM (inactive).

And the GI50 (K562)?
Its GI50 is 27 µM (inactive).

And the GI50 (SNB-75)?
The GI50 was 41.2 µM (inactive).

What about the GI50 (TK-10) of the same molecule?
Its GI50 is 40.6 µM (inactive).

And the GI50 (SW-620)?
The GI50 was 52.1 µM (inactive).

What about the GI50 (CCRF-CEM) of the same molecule?
Its GI50 is 5.57 µM (inactive).

What about the GI50 (HOP-62) of the same molecule?
The GI50 was 56.5 µM (inactive).

And the GI50 (ACHN)?
Its GI50 is 41 µM (inactive).

What about the GI50 (RPMI-8226) of the same molecule?
The GI50 was 42.2 µM (inactive).

And the GI50 (HCT-15)?
The GI50 was 31.8 µM.

And the GI50 (SR)?
The GI50 was 22.7 µM (inactive).

What about the GI50 (NCI/ADR-RES) of the same molecule?
The GI50 was 33.3 µM (inactive).

What about the GI50 (Malme-3M) of the same molecule?
The GI50 was 45.1 µM (inactive).

And the GI50 (SK-OV-3)?
The GI50 was 61.8 µM (inactive).

And the GI50 (SK-MEL-5)?
Its GI50 is 16 µM (inactive).

What about the GI50 (OVCAR-3) of the same molecule?
The GI50 was 43.5 µM (inactive).

And the GI50 (MCF7)?
Its GI50 is 38.5 µM (inactive).

What about the GI50 (OVCAR-8) of the same molecule?
Its GI50 is 42.7 µM (inactive).

What about the GI50 (CAKI-1) of the same molecule?
Its GI50 is 26 µM (inactive).

What about the GI50 (786-0) of the same molecule?
Its GI50 is 45.7 µM (inactive).

What does the source list for `O=C1NC(=O)/C(=C/c2ccc(S(=O)(=O)N/N=C\C(O)C(O)C(O)C(O)CO)cc2)N1` (stereo not given)?
GI50 (COLO 205): > 100 µM (inactive); GI50 (K562): > 100 µM (inactive); GI50 (SNB-75): > 100 µM (inactive); GI50 (TK-10): > 100 µM (inactive); GI50 (SW-620): > 100 µM (inactive); GI50 (CCRF-CEM): > 100 µM (inactive); GI50 (HOP-62): > 100 µM (inactive); GI50 (ACHN): > 100 µM (inactive); GI50 (RPMI-8226): > 100 µM (inactive); GI50 (HCT-15): > 100 µM; GI50 (SR): > 100 µM (inactive); GI50 (NCI/ADR-RES): > 100 µM (inactive); GI50 (Malme-3M): > 100 µM (inactive); GI50 (SK-OV-3): > 100 µM (inactive); GI50 (SK-MEL-5): > 100 µM (inactive); GI50 (OVCAR-3): > 100 µM (inactive); GI50 (MCF7): > 100 µM (inactive); GI50 (OVCAR-8): > 100 µM (inactive); GI50 (CAKI-1): > 100 µM (inactive); GI50 (786-0): > 100 µM (inactive)

For `FC(F)(F)C1(C(F)(F)F)C2CCC3(CC(F)(F)C(F)(F)S3)C1C2` (stereo not given), which GI50 (COLO 205) is on record?
Its GI50 is 31.5 µM (inactive).

What about the GI50 (K562) of the same molecule?
Its GI50 is 36 µM (inactive).

And the GI50 (SNB-75)?
The GI50 was 61.9 µM (inactive).

What about the GI50 (TK-10) of the same molecule?
Its GI50 is > 100 µM (inactive).

What about the GI50 (SW-620) of the same molecule?
Its GI50 is > 100 µM (inactive).

And the GI50 (CCRF-CEM)?
Its GI50 is 24.5 µM (inactive).

And the GI50 (HOP-62)?
Its GI50 is 48.4 µM (inactive).

And the GI50 (ACHN)?
The GI50 was 37.8 µM (inactive).

And the GI50 (RPMI-8226)?
The GI50 was 28.2 µM (inactive).

And the GI50 (HCT-15)?
The GI50 was 62.8 µM.

And the GI50 (SR)?
Its GI50 is 21.3 µM (inactive).

What about the GI50 (NCI/ADR-RES) of the same molecule?
Its GI50 is > 100 µM (inactive).

What about the GI50 (Malme-3M) of the same molecule?
Its GI50 is 34 µM (inactive).

And the GI50 (SK-OV-3)?
Its GI50 is > 100 µM (inactive).

What about the GI50 (SK-MEL-5) of the same molecule?
Its GI50 is 44.3 µM (inactive).

And the GI50 (OVCAR-3)?
Its GI50 is 19.6 µM (inactive).

And the GI50 (MCF7)?
Its GI50 is 36.1 µM (inactive).

What about the GI50 (OVCAR-8) of the same molecule?
The GI50 was > 100 µM (inactive).

What about the GI50 (CAKI-1) of the same molecule?
Its GI50 is 98.2 µM (inactive).

What about the GI50 (786-0) of the same molecule?
Its GI50 is > 100 µM (inactive).

Which results are given for `CN1CCN(Cc2nc3cccc4c3c([n+]2[O-])-c2ccccc2-4)CC1`?
GI50 (COLO 205): 16.9 µM (inactive); GI50 (K562): 29.6 µM (inactive); GI50 (SNB-75): 33 µM (inactive); GI50 (TK-10): 43.5 µM (inactive); GI50 (SW-620): 22.8 µM (inactive); GI50 (CCRF-CEM): 25.9 µM (inactive); GI50 (HOP-62): 30 µM (inactive); GI50 (ACHN): 12.2 µM (inactive); GI50 (RPMI-8226): 20.7 µM (inactive); GI50 (HCT-15): 29 µM; GI50 (SR): 4.19 µM (inactive); GI50 (NCI/ADR-RES): 10.6 µM (inactive); GI50 (Malme-3M): 20.1 µM (inactive); GI50 (SK-OV-3): 59.3 µM (inactive); GI50 (SK-MEL-5): 19.1 µM (inactive); GI50 (OVCAR-3): 37.8 µM (inactive); GI50 (MCF7): 12.8 µM (inactive); GI50 (OVCAR-8): 12.9 µM (inactive); GI50 (CAKI-1): 25.5 µM (inactive); GI50 (786-0): 14.4 µM (inactive)
